Laboratory results taken from patent USRE48461E1, “Modulation of androgen receptor expression” (Ionis Pharmaceuticals, Inc., priority 2012, dated 2021).
Oligonucleotides are written 5' to 3', each unit as a sugar letter and its base; * is a phosphorothioate linkage, no mark a phosphodiester; rarer units and linkages stand in square brackets, end groups in braces. Plain capitals give the bases only. k = constrained ethyl (cEt); [5mC] = 5-methylcytosine; d = 2'-deoxy (DNA)

How the values were obtained:
Format in all cases: cell-based, human
total AR mRNA = assay: Total (full-length) AR mRNA in C4-2B MR cells, free uptake; details: 24 hrs; for Percent inhibition of full-length AR mRNA in C4-2B MR cells: free uptake
Outline: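 Cells grown in RPMI1640 with 10% FBS received antisense oligonucleotides at 0.04, 0.20, 1.00 and 5.00 μM in the medium by free uptake, no transfection agent. After 24 hrs, total AR mRNA quantified by real-time qPCR with primer probe set RTS3559.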

AR V7 variant mRNA [1] = assay: AR V7 variant RNA in VCaP cells; details: RNAiMax, 48 hrs
Experimental: Cells were plated at 10,000 cells per well. […] ISIS 549148 was included as a negative control. After an incubation period of 48 hrs, RNA levels of full length AR, the V7 variant, PSA and TMPRSS2 were measured.
A separate set of cells was treated with MDV-3100 at 0.04 μM, 0.2 μM, 1.0 μM, or 5.0 μM. After an incubation period of 48 hrs, RNA levels of full length AR, the V7 variant, PSA and TMPRSS2 were measured. The data is presented in Tables 108 expressed as percent expression of gene levels compared to the untreated control.
Cells were plated at 15,000 cells per well and cultured in CSS media for 16 hours. […] ISIS 549148 was included as a negative control. After 4 hrs, 1 nM DHT was added. […] After an incubation period of 48 hrs, RNA levels of AR, PSA and TMPRSS2 were measured. […]

full length AR mRNA = assay: Full-length AR RNA in 22RV1 cells (complete, CSS+DHT medium); details: RNAiMax, 48 hrs
Experimental: (§1) Cells were plated at 1,000 cells per well. […] After an incubation period of 48 hrs, RNA levels of full length AR, the V7 variant, PSA and TMPRSS2 were measured.
(§2) After an incubation period of 48 hrs, RNA levels of full length AR, the V7 variant, PSA and TMPRSS2 were measured.
(§3) Cells were plated at 2,000 cells per well and cultured in CSS media for 16 hours. […] After 4 hrs, 1 nM DHT was added. […] After an incubation period of 48 hrs, RNA levels of AR, AR V7 variant, PSA and TMPRSS2 were measured.

PSA mRNA = assay: PSA expression in C4-2 cells; details: 48 hrs; for Percent inhibition of PSA expression: C4-2 cells, CSS + DHT medium
Experimental: Cells were plated at 1,000 cells per well. […] After an incubation period of 48 hrs, RNA levels of AR, PSA and TMPRSS2 were measured.
Cells were plated at 2,000 cells per well and cultured in CSS media with 1 nM DHT. […] After an incubation period of 48 hrs, RNA levels of AR, PSA and TMPRSS2 were measured.

TMPRSS2 mRNA [2] = assay: TMPRSS2 expression in 22RV1 cells; details: RNAiMax, 48 hrs
Experimental: as §1, §2, §3

TMPRSS2 mRNA [3] = assay: TMPRSS2 expression in VCaP cells; details: RNAiMax, 48 hrs
Experimental: Cells were plated at 10,000 cells per well. […] After an incubation period of 48 hrs, RNA levels of full length AR, the V7 variant, PSA and TMPRSS2 were measured.
After an incubation period of 48 hrs, RNA levels of full length AR, the V7 variant, PSA and TMPRSS2 were measured. The data is presented in Tables 108 expressed as percent expression of gene levels compared to the untreated control.
Cells were plated at 15,000 cells per well and cultured in CSS media for 16 hours. […] After 4 hrs, 1 nM DHT was added. […] After an incubation period of 48 hrs, RNA levels of AR, PSA and TMPRSS2 were measured.

AR V7 variant mRNA [4] = assay: AR V7 variant RNA in 22RV1 cells; details: RNAiMax, 48 hrs
LMR20 cells = assay: Proliferation of MDV3100-resistant LMR20 cells (MTT; with R1881 or DHT); details: 5 days
Experimental: LMR20 cells were plated at 1,500 cells per well in phenol red-free medium with charcoal-stripped fetal bovine serum (CSS), to remove any androgens from the medium (Life Technologies). […] The synthetic androgen agonist, R1881, (Takeda, A. N. et al., Mol. Pharmacol. 2007. 71: 473-82) was added on day 1 at 1 nM dose to a set of cells also treated with each of the antisense oligonucleotides. DHT was added on day 1 at a dose of 10 nM to another set of cells also treated with each of the antisense oligonucleotides. […] After a treatment period of 5 days, the proliferative ability of the cancer cells was measured by the standard MTT assay. Results are presented in Table 42 as percent inhibition of proliferation, relative to non-treated cells.

Substance: 549372 (kA*kA*kG*dT*dT*dG*dT*dA*dG*dT*dA*dG*dT*k[5mC]*kG*k[5mC]) [compound 549372]
- Percent inhibition of full-length AR mRNA in C4-2B MR cells (total AR mRNA; 0.04 μM): 35%
- Percent inhibition of full-length AR mRNA in C4-2B MR cells (total AR mRNA; 0.20 μM): 47%
- Percent inhibition of full-length AR mRNA in C4-2B MR cells (total AR mRNA; 1.00 μM): 88%
- Percent inhibition of full-length AR mRNA in C4-2B MR cells (total AR mRNA; 5.00 μM): 91%

Substance: 549458 (kG*kT*kT*dG*dA*dT*dT*dT*dA*dA*dT*dG*dG*kT*kT*kG) [compound 549458]
- Percent inhibition of full-length AR mRNA in C4-2B MR cells (total AR mRNA; 0.04 μM): 41%
- Percent inhibition of full-length AR mRNA in C4-2B MR cells (total AR mRNA; 0.20 μM): 78%
- Percent inhibition of full-length AR mRNA in C4-2B MR cells (total AR mRNA; 1.00 μM): 94%
- Percent inhibition of full-length AR mRNA in C4-2B MR cells (total AR mRNA; 5.00 μM): 97%

Substance: GGCTACTACGCCGTCA (3-10-3 (S)-cEt gapmer, chemistry not fully specified) [ISIS 549148, reference compound]
- Percent inhibition of AR V7 variant (AR V7 variant mRNA [1]; CSS + DHT medium, 1.34 nM): 12%
- Percent inhibition of AR V7 variant (AR V7 variant mRNA [1]; CSS + DHT medium, 4.0 nM): 0%
- Percent inhibition of AR V7 variant (AR V7 variant mRNA [1]; CSS + DHT medium, 13.4 nM): 0%
- Percent inhibition of AR V7 variant (AR V7 variant mRNA [1]; CSS + DHT medium, 40 nM): 5%
- Percent inhibition of AR V7 variant (AR V7 variant mRNA [1]; complete medium, 1.34 nM): 0%
- Percent inhibition of AR V7 variant (AR V7 variant mRNA [1]; complete medium, 4.0 nM): 8%
- Percent inhibition of AR V7 variant (AR V7 variant mRNA [1]; complete medium, 13.4 nM): 0%
- Percent inhibition of AR V7 variant (AR V7 variant mRNA [1]; complete medium, 40 nM): 14%
- Percent inhibition of full-length AR (full length AR mRNA; CSS + DHT medium, 1.34 nM): 2%
- Percent inhibition of full-length AR (full length AR mRNA; CSS + DHT medium, 4.0 nM): 13%
- Percent inhibition of full-length AR (full length AR mRNA; CSS + DHT medium, 13.4 nM): 22%
- Percent inhibition of full-length AR (full length AR mRNA; complete medium, 1.34 nM): 6%
- Percent inhibition of full-length AR (full length AR mRNA; complete medium, 4.0 nM): 0%
- Percent inhibition of full-length AR (full length AR mRNA; complete medium, 13.4 nM): 11%
- Percent inhibition of full-length AR (full length AR mRNA; complete medium, 40 nM): 17%
- Percent inhibition of PSA expression (PSA mRNA; 0.04 μM): 0%
- Percent inhibition of PSA expression (PSA mRNA; 0.2 μM): 8%
- Percent inhibition of PSA expression (PSA mRNA; 1 μM): 21%
- Percent inhibition of PSA expression (PSA mRNA; 5.0 μM): 22%
- Percent inhibition of PSA expression in C4-2 cells cultured in complete medium (PSA mRNA; 0.04 μM): 15%
- Percent inhibition of PSA expression in C4-2 cells cultured in complete medium (PSA mRNA; 0.2 μM): 24%
- Percent inhibition of PSA expression in C4-2 cells cultured in complete medium (PSA mRNA; 1 μM): 24%
- Percent inhibition of PSA expression in C4-2 cells cultured in complete medium (PSA mRNA; 5.0 μM): 23%
- Percent inhibition of TMPRSS2 expression (TMPRSS2 mRNA [2]; CSS + DHT medium, 1.34 nM): 0%
- Percent inhibition of TMPRSS2 expression (TMPRSS2 mRNA [2]; CSS + DHT medium, 4.0 nM): 3%
- Percent inhibition of TMPRSS2 expression (TMPRSS2 mRNA [2]; CSS + DHT medium, 13.4 nM): 1%
- Percent inhibition of TMPRSS2 expression (TMPRSS2 mRNA [2]; complete medium, 1.34 nM): 15%
- Percent inhibition of TMPRSS2 expression (TMPRSS2 mRNA [2]; complete medium, 4.0 nM): 9%
- Percent inhibition of TMPRSS2 expression (TMPRSS2 mRNA [2]; complete medium, 13.4 nM): 14%
- Percent inhibition of TMPRSS2 expression (TMPRSS2 mRNA [2]; complete medium, 40 nM): 4%
- Percent inhibition of TMPRSS2 expression (TMPRSS2 mRNA [3]; CSS + DHT medium, 1.34 nM): 0%
- Percent inhibition of TMPRSS2 expression (TMPRSS2 mRNA [3]; CSS + DHT medium, 4.0 nM): 0%
- Percent inhibition of TMPRSS2 expression (TMPRSS2 mRNA [3]; CSS + DHT medium, 13.4 nM): 0%
- Percent inhibition of TMPRSS2 expression (TMPRSS2 mRNA [3]; CSS + DHT medium, 40 nM): 0%
- Percent inhibition of TMPRSS2 expression (TMPRSS2 mRNA [3]; complete medium, 1.34 nM): 0%
- Percent inhibition of TMPRSS2 expression (TMPRSS2 mRNA [3]; complete medium, 4.0 nM): 0%
- Percent inhibition of TMPRSS2 expression (TMPRSS2 mRNA [3]; complete medium, 13.4 nM): 0%
- Percent inhibition of TMPRSS2 expression (TMPRSS2 mRNA [3]; complete medium, 40 nM): 0%
- Percent inhibition of AR V7 variant (AR V7 variant mRNA [4]; CSS + DHT medium, 1.34 nM): 19%
- Percent inhibition of AR V7 variant (AR V7 variant mRNA [4]; CSS + DHT medium, 4.0 nM): 19%
- Percent inhibition of AR V7 variant (AR V7 variant mRNA [4]; CSS + DHT medium, 13.4 nM): 32%
- Percent inhibition of AR V7 variant (AR V7 variant mRNA [4]; complete medium, 1.34 nM): 0%
- Percent inhibition of AR V7 variant (AR V7 variant mRNA [4]; complete medium, 4.0 nM): 0%
- Percent inhibition of AR V7 variant (AR V7 variant mRNA [4]; complete medium, 13.4 nM): 22%
- Percent inhibition of AR V7 variant (AR V7 variant mRNA [4]; complete medium, 40 nM): 26%

Substance: GTTGATTTAATGGTTG (all phosphorothioate, sugars by position not given here; further chemistry not fully specified) [ISIS 549458]
- Percent inhibition of LMR20 cell proliferation (LMR20 cells; CSS + DHT, ASO 0.04 μM): 0%
- Percent inhibition of LMR20 cell proliferation (LMR20 cells; CSS + DHT, ASO 0.20 μM): 25%
- Percent inhibition of LMR20 cell proliferation (LMR20 cells; CSS + DHT, ASO 1.0 μM): 60%
- Percent inhibition of LMR20 cell proliferation (LMR20 cells; CSS + DHT, ASO 5.0 μM): 70%
- Percent inhibition of LMR20 cell proliferation (LMR20 cells; CSS + R1881, ASO 0.04 μM): 0%
- Percent inhibition of LMR20 cell proliferation (LMR20 cells; CSS + R1881, ASO 0.20 μM): 22%
- Percent inhibition of LMR20 cell proliferation (LMR20 cells; CSS + R1881, ASO 1.0 μM): 59%
- Percent inhibition of LMR20 cell proliferation (LMR20 cells; CSS + R1881, ASO 5.0 μM): 74%
- Percent inhibition of LMR20 cell proliferation (LMR20 cells; CSS, ASO 0.04 μM): 0%
- Percent inhibition of LMR20 cell proliferation (LMR20 cells; CSS, ASO 0.20 μM): 0%
- Percent inhibition of LMR20 cell proliferation (LMR20 cells; CSS, ASO 1.0 μM): 0%
- Percent inhibition of LMR20 cell proliferation (LMR20 cells; CSS, ASO 5.0 μM): 5%
- LMR20 cell proliferation (LMR20 cells; in the presence of R1881 or DHT, 0.04-5.0 μM): significantly inhibited MDV3100-resistant prostate cancer cell proliferation in a dose dependent manner more extensively than ISIS 554221
- total AR transcript levels (total AR mRNA; C4-2B MR cells, 0.04-5.00 μM free uptake): reduced total AR transcript levels in a dose dependent manner more extensively than treatment with ISIS 554221
